Reference: PubChem BioAssay AID248 (DTP/NCI, 2004)
Where “and” joins values, the source holds several entries; their conditions need not be identical. Identical values can stand only once. Toxic doses and inconclusive results are not listed.

Test system: L1210 leukemia ip in BDF1 mice, survival T/C
Assay: NCI In Vivo Anticancer Drug Screen. Data for tumor model L1210 Leukemia (intraperitoneal) in B6D2F1 (BDF1) mice
Conditions: endpoint: mean survival time, higher = longer survival
Summary of the method: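 Each compound was tested against a transplantable tumor grown in mice. The endpoint was survival, with treated animals benchmarked against vehicle controls as a simple ratio.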

[1] = dose: 100.0 mg/kg/injection, schedule: Q01DX009 (ip), vehicle: saline with Tween-80
[2] = dose: 200.0 mg/kg/injection, schedule: Q01DX009 (ip), vehicle: saline with Tween-80
[3] = dose: 400.0 mg/kg/injection, schedule: Q01DX009 (ip), vehicle: saline with Tween-80
[4] = dose: 25.0 mg/kg/injection, schedule: Q04DX003 (ip), vehicle: Klucel (hydroxypropylcellulose) (HPC)
[5] = dose: 50.0 mg/kg/injection, schedule: Q04DX003 (ip), vehicle: Klucel (hydroxypropylcellulose) (HPC)
[6] = dose: 100.0 mg/kg/injection, schedule: Q04DX003 (ip), vehicle: Klucel (hydroxypropylcellulose) (HPC)
[7] = dose: 200.0 mg/kg/injection, schedule: Q04DX003 (ip), vehicle: Klucel (hydroxypropylcellulose) (HPC)
[8] = dose: 100.0 mg/kg/injection, schedule: Q01DX001 (ip), vehicle: saline
[9] = dose: 100.0 mg/kg/injection, schedule: Q01DX009 (ip), vehicle: Klucel (hydroxypropylcellulose) (HPC)
[10] = dose: 200.0 mg/kg/injection, schedule: Q01DX009 (ip), vehicle: Klucel (hydroxypropylcellulose) (HPC)
[11] = dose: 400.0 mg/kg/injection, schedule: Q01DX009 (ip), vehicle: Klucel (hydroxypropylcellulose) (HPC)
[12] = dose: 400.0 mg/kg/injection, schedule: Q04DX003 (ip), vehicle: Klucel (hydroxypropylcellulose) (HPC)
[13] = dose: 400.0 mg/kg/injection, schedule: Q01DX001 (ip), vehicle: carboxymethylcellulose (CMC)
[14] = dose: 100.0 mg/kg/injection, schedule: Q01DX001 (ip), vehicle: other
[15] = dose: 200.0 mg/kg/injection, schedule: Q01DX001 (ip), vehicle: other
[16] = dose: 100.0 mg/kg/injection, schedule: Q04DX003 (ip), vehicle: saline with Tween-80
[17] = dose: 200.0 mg/kg/injection, schedule: Q04DX003 (ip), vehicle: saline with Tween-80
[18] = dose: 400.0 mg/kg/injection, schedule: Q04DX003 (ip), vehicle: saline with Tween-80

## CC(=O)Nc1ccn(C2OC(CO)C(O)C2O)c(=O)n1 (stereo not drawn)
dose: 200.0 mg/kg/injection, schedule: Q01DX009 (ip), vehicle: saline
  T/C: 166 % of control
dose: 400.0 mg/kg/injection, schedule: Q01DX009 (ip), vehicle: saline
  T/C: 163 % of control

## COc1ccccc1NC(=O)CC(C)=O
dose: 50.0 mg/kg/injection, schedule: Q01DX001 (ip), vehicle: Klucel (hydroxypropylcellulose) (HPC)
  T/C: 100 % of control
dose: 100.0 mg/kg/injection, schedule: Q01DX001 (ip), vehicle: Klucel (hydroxypropylcellulose) (HPC)
  T/C: 100 % of control
[1]
  T/C: 103 % of control
dose: 200.0 mg/kg/injection, schedule: Q01DX001 (ip), vehicle: Klucel (hydroxypropylcellulose) (HPC)
  T/C: 106 % of control
[2]
  T/C: 95 % of control
[3]
  T/C: 97 % of control

## Cc1cc(N(CCOS(C)(=O)=O)CCOS(C)(=O)=O)ccc1N=O
dose: 62.5 micrograms/kg/injection, schedule: Q01DX010 (ip), vehicle: saline
  T/C: 121 % of control

## CC(CN(C)N=O)C1CCC2C3CC=C4CC(O)CCC4(C)C3CCC12C (stereo not drawn)
dose: 100.0 mg/kg/injection, schedule: Q01DX001 (sc), vehicle: steriod suspending solution
  T/C: 96 % of control
dose: 200.0 mg/kg/injection, schedule: Q01DX001 (sc), vehicle: steriod suspending solution
  T/C: 96 % of control
dose: 400.0 mg/kg/injection, schedule: Q01DX001 (sc), vehicle: steriod suspending solution
  T/C: 100 % of control

## C=C1N(c2ccc(OC)c(OC)c2)C(=O)OC12CCCCC2
[4]
  T/C: 93 % of control
[5]
  T/C: 93 % of control
[6]
  T/C: 102 % of control
[7]
  T/C: 96 % of control

## N#C/C=C/C1CCCCC1
dose: 25.0 mg/kg/injection, schedule: Q04DX003 (ip), vehicle: saline
  T/C: 109 % of control
dose: 50.0 mg/kg/injection, schedule: Q04DX003 (ip), vehicle: saline
  T/C: 107 % of control
[8]
  T/C: 95 % of control
dose: 100.0 mg/kg/injection, schedule: Q04DX003 (ip), vehicle: saline
  T/C: 105 % of control

## C/C=C/C[P+](CC)(c1ccccc1)c1ccccc1
dose: 3.13 mg/kg/injection, schedule: Q01DX009 (ip), vehicle: saline
  T/C: 89 % of control

## C[C@@H](c1ccccc1)[C@@H](C(=O)O)c1ccccc1
dose: 50.0 mg/kg/injection, schedule: Q01DX001 (ip), vehicle: saline
  T/C: 109 % of control
[8]
  T/C: 94 % of control
dose: 200.0 mg/kg/injection, schedule: Q01DX001 (ip), vehicle: saline
  T/C: 97 % of control
dose: 400.0 mg/kg/injection, schedule: Q01DX001 (ip), vehicle: saline
  T/C: 97 % of control

## O=c1[nH]cc(C2OC(CO)C(O)C2O)c(=O)[nH]1 (stereo not drawn)
dose: 100.0 mg/kg/injection, schedule: Q01DX005 (ip), vehicle: saline
  T/C: 119 % of control
dose: 200.0 mg/kg/injection, schedule: Q01DX005 (ip), vehicle: saline
  T/C: 97 % of control

## CCn1c(=O)cc(C)c2ccccc21
dose: 75.0 mg/kg/injection, schedule: Q01DX001 (ip), vehicle: carboxymethylcellulose (CMC)
  T/C: 104 % of control
dose: 150.0 mg/kg/injection, schedule: Q01DX001 (ip), vehicle: carboxymethylcellulose (CMC)
  T/C: 104 % of control
dose: 300.0 mg/kg/injection, schedule: Q01DX001 (ip), vehicle: carboxymethylcellulose (CMC)
  T/C: 96 % of control

## Cc1ccc([N+](=O)[O-])c(C)c1
[9]
  T/C: 92 % of control
[6]
  T/C: 105 % of control
[10]
  T/C: 96 % of control
[7]
  T/C: 104 % of control
[11]
  T/C: 102 % of control
[12]
  T/C: 102 % of control

## c1ccc(CSCCSCc2ccccc2)cc1
dose: 87.5 mg/kg/injection, schedule: Q01DX009 (ip), vehicle: other
  T/C: 95 % of control
dose: 175.0 mg/kg/injection, schedule: Q01DX009 (ip), vehicle: other
  T/C: 101 % of control
dose: 350.0 mg/kg/injection, schedule: Q01DX009 (ip), vehicle: other
  T/C: 104 % of control

## ClC1(Cl)C2CC(C3C4C=CC(C4)C32)C1(Cl)Cl (stereo not drawn)
dose: 50.0 mg/kg/injection, schedule: Q01DX001 (ip), vehicle: carboxymethylcellulose (CMC)
  T/C: 88 % of control
[13]
  T/C: 101 % of control

## Cn1c(=O)c2c(nc(OC3CCCCCC3)n2C)n(C)c1=O
dose: 50.0 mg/kg/injection, schedule: Q01DX001 (ip), vehicle: other
  T/C: 101 % of control
[14]
  T/C: 93 % of control
[15]
  T/C: 98 % of control

## Nc1cc2c3ccccc3c(F)cc2c2ccccc12
[9]
  T/C: 106 % of control
[6]
  T/C: 96 % of control
[10]
  T/C: 104 % of control
[7]
  T/C: 93 % of control
[11]
  T/C: 101 % of control
[12]
  T/C: 98 % of control

## CC/C(=N/N=C(N)N)c1ccc(NC(=O)Nc2ccc(/C(CC)=N/N=C(N)N)cc2)cc1
dose: 2.5 mg/kg/injection, schedule: Q01DX009 (ip), vehicle: saline
  T/C: 103 % of control
dose: 5.0 mg/kg/injection, schedule: Q01DX009 (ip), vehicle: saline
  T/C: 121 % of control
dose: 10.0 mg/kg/injection, schedule: Q01DX009 (ip), vehicle: saline
  T/C: 107 % of control

## CC/C(=N/Nc1ccc([N+](=O)[O-])cc1[N+](=O)[O-])c1ccccc1
[14]
  T/C: 96 % of control
[15]
  T/C: 111 % of control
dose: 400.0 mg/kg/injection, schedule: Q01DX001 (ip), vehicle: other
  T/C: 91 % of control

## CCc1c(C(OC)OC)[nH]c(=S)[nH]c1=O
[1]
  T/C: 94 % of control
[16]
  T/C: 100 % of control
[2]
  T/C: 100 % of control
[17]
  T/C: 100 % of control
[3]
  T/C: 94 % of control
[18]
  T/C: 105 % of control

## OCC1=CCc2ccccc21
dose: 100.0 mg/kg/injection, schedule: Q04DX002 (ip), vehicle: other
  T/C: 93 % of control
dose: 200.0 mg/kg/injection, schedule: Q04DX002 (ip), vehicle: other
  T/C: 93 % of control
dose: 400.0 mg/kg/injection, schedule: Q04DX002 (ip), vehicle: other
  T/C: 93 % of control

## COc1ccc(CCNC(=O)Cc2ccccc2)cc1OC
dose: 50.0 mg/kg/injection, schedule: Q01DX009 (ip), vehicle: saline with Tween-80
  T/C: 90 % of control
[1]
  T/C: 93 % of control
[16]
  T/C: 92 % of control
[2]
  T/C: 94 % of control and 96 % of control
[17]
  T/C: 92 % of control
[3]
  T/C: 99 % of control

## CC(C)=CCCC(C)CCOC(N)=O (stereo not drawn)
dose: 100.0 mg/kg/injection, schedule: Q04DX002 (ip), vehicle: saline with Tween-80
  T/C: 104 % of control
dose: 200.0 mg/kg/injection, schedule: Q04DX002 (ip), vehicle: saline with Tween-80
  T/C: 111 % of control

## Cc1ccc(S/C(=N\O)C(C)C)cc1
dose: 100.0 mg/kg/injection, schedule: Q04DX002 (ip), vehicle: Klucel (hydroxypropylcellulose) (HPC)
  T/C: 108 % of control
dose: 200.0 mg/kg/injection, schedule: Q04DX002 (ip), vehicle: Klucel (hydroxypropylcellulose) (HPC)
  T/C: 92 % of control
dose: 400.0 mg/kg/injection, schedule: Q04DX002 (ip), vehicle: Klucel (hydroxypropylcellulose) (HPC)
  T/C: 110 % of control

## CC(=O)OC1c2ccccc2C2c3ccccc3C1C2Cl (stereo not drawn)
dose: 176.0 mg/kg/injection, schedule: Q01DX001 (ip), vehicle: carboxymethylcellulose (CMC)
  T/C: 91 % of control
dose: 264.0 mg/kg/injection, schedule: Q01DX001 (ip), vehicle: carboxymethylcellulose (CMC)
  T/C: 95 % of control
[13]
  T/C: 92 % of control
dose: 600.0 mg/kg/injection, schedule: Q01DX001 (ip), vehicle: carboxymethylcellulose (CMC)
  T/C: 89 % of control

## S=C(N/N=C/c1ccc(-c2ccccc2)cc1)Nc1ccccc1
[1]
  T/C: 86 % of control
[16]
  T/C: 97 % of control
[2]
  T/C: 88 % of control
[17]
  T/C: 100 % of control
[18]
  T/C: 94 % of control

## COc1ccccc1NC(N)=S
dose: 25.0 mg/kg/injection, schedule: Q01DX009 (ip), vehicle: Klucel (hydroxypropylcellulose) (HPC)
  T/C: 94 % of control
[4]
  T/C: 98 % of control
dose: 50.0 mg/kg/injection, schedule: Q01DX009 (ip), vehicle: Klucel (hydroxypropylcellulose) (HPC)
  T/C: 97 % of control
[5]
  T/C: 92 % of control
[9]
  T/C: 101 % of control
[6]
  T/C: 103 % of control

## CCCN(CCC)C(=O)OCC
[1]
  T/C: 97 % of control
[2]
  T/C: 100 % of control
